According to patent US6977262B2, “Dihydropyrazolopyridine compounds and pharmaceutical use thereof” (Mitsubishi Pharma Corporation, priority 2001, dated 2005):

Row | melting point | Compound
1 | 192 °C | Cc1ccc(C2=C(C#N)C(c3cccc4nonc34)c3c[nH]nc3N2)s1 (stereo not drawn) [Example 299, 4-(2,1,3-Benzoxadiazol-4-yl)-5-cyano-4,7-dihydro-6-(2-methylthiophen-5-yl)-2H-pyrazolo[3,4-b]pyridine]
2 | 265 °C | Cc1cccc(C2C(C#N)=C(C3CC3)Nc3n[nH]cc32)c1[N+](=O)[O-] (stereo not drawn) [Example 340, 5-Cyano-6-cyclopropyl-4,7-dihydro-4-(3-methyl-2-nitrophenyl)-2H-pyrazolo[3,4-b]pyridine]
3 | 208 °C | CCCC1=C(C(=O)OCC)C(c2cccc3c2OCCC3)c2c[nH]nc2N1 (stereo not drawn) [Example 73, Ethyl 4-(3,4-dihydro-2H-benzopyran-8-yl)-4,7-dihydro-6-propyl-2H-pyrazolo[3,4-b]pyridine-5-carboxylate]
4 | 217 to 220 °C (dec.) | Cl.Cl.Cl.N#CC1=C(CN2CCN(c3ccccc3)CC2)Nc2n[nH]cc2C1c1ccccc1Cl (stereo not drawn)
5 | 220 °C | COc1cccc(C2=C(C#N)C(c3ccccc3[N+](=O)[O-])c3c[nH]nc3N2)c1 (stereo not drawn) [Example 156, 5-Cyano-4,7-dihydro-6-(3-methoxyphenyl)-4-(2-nitrophenyl)-2H-pyrazolo[3,4-b]pyridine]
6 | 123 to 125 °C | CCCC1=C(C(=O)OCC)C(c2cc3ccccc3o2)c2c[nH]nc2N1.O=C(O)/C=C\C(=O)O (stereo not drawn) [Example 81, Ethyl 4-(benzo[b]furan-2-yl)-4,7-dihydro-6-propyl-2H-pyrazolo[3,4-b]pyridine-5-carboxylate maleate]
7 | > 280 °C | CS(=O)(=O)N1CCC(C2=C(C#N)C(c3cccc(C#N)c3Br)c3c[nH]nc3N2)CC1 (stereo not drawn) [Example 1053, 4-(2-Bromo-3-cyanophenyl)-5-cyano-4,7-dihydro-6-(1-methanesulfonylpiperidin-4-yl)-2H-pyrazolo[3,4-b]pyridine]
8 | 165 °C | N#CC1=C(c2ccccc2)Nc2n[nH]cc2C1c1cccc(F)c1F (stereo not drawn) [Example 149, 5-Cyano-4-(2,3-difluorophenyl)-4,7-dihydro-6-phenyl-2H-pyrazolo[3,4-b]pyridine]
9 | 194 °C | CCCC1=C(C(=O)OCC)C(c2cccc3c2OCC=C3)c2c[nH]nc2N1 (stereo not drawn) [Example 72, Ethyl 4-(2H-1-benzopyran-8-yl)-4,7-dihydro-6-propyl-2H-pyrazolo[3,4-b]pyridine-5-carboxylate]
10 | 159 to 161 °C | CCOC(=O)C1=C(C(F)(F)F)Nc2n[nH]cc2C1c1ccc(OC)cc1 (stereo not drawn) [Example 19, Ethyl 4,7-dihydro-4-(4-methoxyphenyl)-6-trifluoromethyl-2H-pyrazolo[3,4-b]pyridine-5-carboxylate]
11 | 254 °C | CCCC1=C(C#N)C(c2ccccc2Cl)c2c(n[nH]c2-c2cccc3ccccc23)N1 (stereo not drawn) [Example 300, 4-(2-Chlorophenyl)-5-cyano-4,7-dihydro-3-(naphthalen-1-yl)-6-propyl-2H-pyrazolo[3,4-b]pyridine]
12 | > 230 °C | CC(=O)C1=C(C#N)C(c2cccc(C#N)c2Br)c2c[nH]nc2N1 (stereo not drawn) [Example 1081, 6-Acetyl-4-(2-bromo-3-cyanophenyl)-5-cyano-4,7-dihydro-2H-pyrazolo[3,4-b]pyridine]
13 | 234 °C | CCCC1=C([N+](=O)[O-])C(c2cccc3c2OCCC3)c2c[nH]nc2N1 (stereo not drawn) [Example 124, 4,7-Dihydro-4-(3,4-dihydro-2H-benzopyran-8-yl)-5-nitro-6-propyl-2H-pyrazolo[3,4-b]pyridine]
14 | 232 °C | N#CC1=C(c2cccs2)Nc2n[nH]cc2C1c1cccc(Cl)c1Cl (stereo not drawn) [Example 247, 5-Cyano-4-(2,3-dichlorophenyl)-4,7-dihydro-6-(thiophen-2-yl)-2H-pyrazolo[3,4-b]pyridine]
15 | 140 to 145 °C | CCOC(=O)C1=C(C(F)(F)F)Nc2n[nH]cc2C1c1ccsc1 (stereo not drawn) [Example 23, Ethyl 4,7-dihydro-4-(thiophen-3-yl)-6-trifluoromethyl-2H-pyrazolo[3,4-b]pyridine-5-carboxylate]
